Measurements taken from patent publication US8486962B2, “Antifungal agents” (F2G Ltd., priority 2005, dated 2013).
In brackets after ≈: the same amount, converted by molar mass.

What was measured:
Assay type in all cases: cell-based
Aspergillus flavus = assay: MIC, YAG medium, Aspergillus flavus; details: YAG medium; for MIC: Aspergillus flavus, read-out: MIC A Flavus 01
Description: (§1) Measurement of Minimum Inhibitory Concentrations (MICs)
(§2) Between 1 and 5 mgs of compound were accurately weighed out into a sterile Eppendorf tube. The compound was dissolved in DMSO to give a solution containing 5 mg/ml. Tubes were stored at −20° C. until required.
(§3) On the day of testing thawed solutions were vortex mixed to ensure homogeneity. 30 μl of solution was removed and added to 570 μl of sterile water in a separate sterile Eppendorf. The thoroughly mixed solution was used to prepare a series of doubling dilutions in water, in a deep well plate. Eleven replicate plates were prepared using a Minitrak by aspirating 20 μl from each well into eleven clear polystyrene 96 well plates.
(§4) Spores of Aspergillus spp (Aspergillus fumigatus, Aspergillus terreus, Aspergillus niger and Aspergillus flavus) were harvested from cultures grown on Sabarauds agar for 5 days, and resuspended in PBS/Tween 80 to approx 1×10^7 cfu/ml Other filamentous fungi (Fusarium solani, Scedosporium spp., Trichophyton spp., Absidia corymbifera), were grown on Sabarauds agar for 2-10 days and spores/hyphae resuspended in PBS/Tween to give approx 1×10^7 cfU/ml. Candida species (Candida albicans, Candida glabrata, Candida krusei, Candida parapsilosis and Candida tropicalis) were grown on Sabarauds agar, cells were harvested from the agar using a sterile loop and resuspended in PBS/Tween 80 to approx 1×10^6 cfu/ml. Each organism suspension was diluted in RPMI medium, containing 2% glucose and 0.135M MOPS buffer (pH7.0) to 2×10^4 cfu/ml for Aspergillus spp and other filamentous fungi and 2×10^3 cfu/ml for yeast. 80 μl of an organism suspension was added to each well of the plate containing drug dilutions.
(§5) This produced MIC plates with a drug range 50-0.05 mg/L and organism inocula of 1-2×10^4 cfu/ml for Aspergillus spp and other filamentous fungi and 1-2×10^3 cfu/ml for yeasts. All plates were incubated for 24-48 hrs at 35° C. Growth was assessed by monitoring the optical density at 485 nm for each well. The MIC of a compound is the lowest drug concentration that inhibits growth of an organism by >80% compared with a drug free control. MICs are recorded as mg/L. Other growth media can be used for susceptibility testing, and the activity of the described compounds can also be assessed in a medium comprising, 1% glucose, 1% ammonium chloride and 0.5% yeast extract (YAG medium). To perform MIC tests in this medium, dilutions of compounds are prepared in microtitre plates as described above. Fungal strains to be tested are grown and harvested in an identical manner to that described above, each organism suspension is then diluted in YAG medium to 2×10^4 cfu/ml for Aspergillus spp and other filamentous fungi and 2×10^3 cfu/ml for yeast. 80 μl of an organism suspension was added to each well of the plate containing drug dilutions. This produced MIC plates with a drug range 50-0.05 mg/L and organism inocula of 1-2×10^4 cfu/ml for Aspergillus spp and other filamentous fungi and 1-2×10^3 cfu/ml for yeasts. All plates were incubated for 24 hrs at 35° C. Growth was assessed by monitoring the optical density at 485 nm for each well. The MIC of a compound is the lowest drug concentration that inhibits growth of an organism by >70% compared with a drug free control. MICs are recorded as mg/L. In cases where the MIC of an organism is […]0.05 mg/L the MIC is repeated using a concentration range of 0.5-0.0005 mg/L. MIC tests in YAG medium have more clear-cut endpoints and have slightly lower MICS than those performed in RPMI medium.
(§6) The following organisms were tested: Aspergillus fumigatus AF293 and Aspergillus fumigatus AF210, Aspergillus niger, Aspergillus terreus, Aspergillus favus, Candida albicans, Candida krusei, Candida tropicalis, Candida glabrata, Candida parapsilosis, Trichophyton rubrum, Trichophyton mentagrophytes, Scedosporium prolificans, Scedosporium apiospermum, Absidia corymbifera, Fusarium solani.

[1] = tested on: Aspergillus fumigatus AF293; assay: MIC, YAG medium, Aspergillus fumigatus AF293; details: YAG medium; for MIC: Aspergillus fumigatus, AF293, read-out: MIC A Fum. 293
Description: as §1, §2, §3, §4, §5, §6

Aspergillus niger = assay: MIC, YAG medium, Aspergillus niger; details: YAG medium; for MIC: Aspergillus niger, read-out: MIC A Niger 1
Description: as §1, §2, §3, §4, §5, §6

Aspergillus terreus = assay: MIC, YAG medium, Aspergillus terreus; details: YAG medium; for MIC: Aspergillus terreus, read-out: MIC A Terreus 4
Description: as §1, §2, §3, §4, §5, §6

[2] = tested on: Aspergillus fumigatus AF210; assay: MIC, YAG medium, Aspergillus fumigatus AF210; details: YAG medium; for MIC: Aspergillus fumigatus, AF210, read-out: MIC A Fum. 210
Description: as §1, §2, §3, §4, §5, §6

Compound	MIC (Aspergillus flavus) [µg/mL]	MIC [1] [µg/mL]	MIC (Aspergillus niger) [µg/mL]	MIC (Aspergillus terreus) [µg/mL]	MIC [2] [µg/mL]	MIC A Flavus (Aspergillus flavus) [µg/mL]	MIC A Fum. 293 [1] [µg/mL]	MIC A Niger (Aspergillus niger) [µg/mL]	MIC A Terreus (Aspergillus terreus) [µg/mL]	MIC A Fum. 210 [2] [µg/mL]
COc1ccc(NC(=O)C(=O)c2c(-c3ccco3)cc3ccccn23)c(OC)c1 [Example 169, N-(2,4-Dimethoxy-phenyl)-2-(2-furan-2-yl-indolizin-3-yl)-2-oxo-acetamide]	0.4 (≈ 1.02 µM)	3.1 (≈ 7.94 µM)	0.4 (≈ 1.02 µM)	3.1 (≈ 7.94 µM)	6.25 (≈ 16 µM)	–	–	–	–	–
Cc1ccc(NC(=O)C(=O)c2c(-c3ccccc3)cc3cccc(C)n23)cc1 [Example 188, 2-(5-Methyl-2-phenyl-indolizin-3-yl)-2-oxo-N-p-tolyl-acetamide]	3.1 (≈ 8.41 µM)	1.6 (≈ 4.34 µM)	0.4 (≈ 1.09 µM)	0.8 (≈ 2.17 µM)	0.8 (≈ 2.17 µM)	–	–	–	–	–
CN(C)c1ccc(NC(=O)C(=O)c2c(-c3cccnc3)cc3ccccn23)cc1 [Example 230, N-(4-Dimethylamino-phenyl)-2-oxo-2-(2-pyridin-3-yl-indolizin-3-yl)-acetamide]	0.1 (≈ 0.26 µM)	> 50	3.1 (≈ 8.06 µM)	0.2 (≈ 0.52 µM)	> 50	–	–	–	–	–
O=C(C(=O)N1CCc2ccccc21)c1c(-c2ccccc2)cc2ccccn12 [Example 218, 1-(2,3-Dihydro-indol-1-yl)-2-(2-phenyl-indolizin-3-yl)-ethane-1,2-dione]	> 50	> 50	0.4 (≈ 1.09 µM)	> 50	> 50	–	–	–	–	–
COc1ccc(NC(=O)C(=O)c2c(-c3ccncc3)cc3ccccn23)c(OC)c1 [Example 172, N-(2,4-Dimethoxy-phenyl)-2-oxo-2-(2-pyridin-4-yl-indolizin-3-yl)-acetamide]	0.4 (≈ 0.996 µM)	25 (≈ 62.3 µM)	3.1 (≈ 7.72 µM)	1.6 (≈ 3.99 µM)	25 (≈ 62.3 µM)	–	–	–	–	–
O=C(NCc1ccccc1)C(=O)c1c(-c2ccccc2)cc2ccccn12 [Example 182, N-Benzyl-2-oxo-2-(2-phenyl-indolizin-3-yl)-acetamide]	> 50	> 50	> 50	0.2 (≈ 0.564 µM)	> 50	–	–	–	–	–
CC(=O)c1ccc(NC(=O)C(=O)c2c(-c3cccnc3)cc3ccccn23)cc1 [Example 217, N-(4-Acetyl-phenyl)-2-oxo-2-(2-pyridin-3-yl-indolizin-3-yl)-acetamide]	0.8 (≈ 2.09 µM)	> 50	> 50	3.1 (≈ 8.09 µM)	> 50	–	–	–	–	–
O=C(Nc1ccc(Br)cc1)C(=O)c1c(-c2cccnc2)cc2ccccn12 [Example 214, N-(4-Bromo-phenyl)-2-oxo-2-(2-pyridin-3-yl-indolizin-3-yl)-acetamide]	0.1 (≈ 0.238 µM)	0.8 (≈ 1.9 µM)	0.4 (≈ 0.952 µM)	0.1 (≈ 0.238 µM)	0.8 (≈ 1.9 µM)	–	–	–	–	–
O=C(NC1CCCCC1)C(=O)c1c(-c2ccccc2)cc2ccccn12 [Example 178, N-Cyclohexyl-2-oxo-2-(2-phenyl-indolizin-3-yl)-acetamide]	1.6 (≈ 4.62 µM)	0.8 (≈ 2.31 µM)	0.2 (≈ 0.577 µM)	0.1 (≈ 0.289 µM)	0.8 (≈ 2.31 µM)	–	–	–	–	–
Cc1ccc(NC(=O)C(=O)c2c(-c3ccccc3)cc3ccc(C)cn23)cc1 [Example 190, 2-(6-Methyl-2-phenyl-indolizin-3-yl)-2-oxo-N-p-tolyl-acetamide]	0.4 (≈ 1.09 µM)	1.6 (≈ 4.34 µM)	0.4 (≈ 1.09 µM)	0.1 (≈ 0.271 µM)	1.6 (≈ 4.34 µM)	–	–	–	–	–
COc1ccc(NC(=O)C(=O)c2c(-c3ccccc3)cc3cccc(C)n23)cn1 [Example 189, N-(6-Methoxy-pyridin-3-yl)-2-(5-methyl-2-phenyl-indolizin-3-yl)-2-oxo-acetamide]	3.1 (≈ 8.04 µM)	3.1 (≈ 8.04 µM)	0.8 (≈ 2.08 µM)	1.6 (≈ 4.15 µM)	3.1 (≈ 8.04 µM)	–	–	–	–	–
COc1ccc(NC(=O)C(=O)c2c(-c3ccccc3)cc3c(C)cccn23)cc1 [Example 234, N-(4-Methoxy-phenyl)-2-(8-methyl-2-phenyl-indolizin-3-yl)-2-oxo-acetamide]	> 50	> 50	> 50	1.6 (≈ 4.16 µM)	> 50	–	–	–	–	–
O=C(Nc1ccc(F)cc1)C(=O)c1c(-c2ccc(F)cc2)cc2ccccn12 [Example 209, N-(4-Fluoro-phenyl)-2-[2-(4-fluoro-phenyl)-indolizin-3-yl]-2-oxo-acetamide]	0.1 (≈ 0.266 µM)	> 50	0.05 (≈ 0.133 µM)	0.05 (≈ 0.133 µM)	> 50	–	–	–	–	–
CN(C)CCOc1cccc(NC(=O)C(=O)c2c(-c3ccccc3)cc3ccccn23)c1 [Example 240, N-[3-(2-Dimethylamino-ethoxy)-phenyl]-2-oxo-2-(2-phenyl-indolizin-3-yl)-acetamide]	12.5 (≈ 29.2 µM)	50 (≈ 117 µM)	> 50	12.5 (≈ 29.2 µM)	> 50	–	–	–	–	–
O=C(Nc1ccc(F)cc1)C(=O)c1c(-c2cccnc2)cc2ccccn12 [Example 198, N-(4-Fluoro-phenyl)-2-oxo-2-(2-pyridin-3-yl-indolizin-3-yl)-acetamide]	0.8 (≈ 2.23 µM)	3.1 (≈ 8.63 µM)	1.6 (≈ 4.45 µM)	0.8 (≈ 2.23 µM)	> 50	–	–	–	–	–
COc1ccc(NC(=O)C(=O)c2c(-c3ccco3)cc3ccccn23)cn1 [Example 170, 2-(2-Furan-2-yl-indolizin-3-yl)-N-(6-methoxy-pyridin-3-yl)-2-oxo-acetamide]	3.1 (≈ 8.58 µM)	> 50	3.1 (≈ 8.58 µM)	> 50	> 50	–	–	–	–	–
O=C(Nc1ccc(Cl)cc1)C(=O)c1c(-c2cccnc2)cc2ccccn12 [Example 197, N-(4-Chloro-phenyl)-2-oxo-2-(2-pyridin-3-yl-indolizin-3-yl)-acetamide]	0.4 (≈ 1.06 µM)	3.1 (≈ 8.25 µM)	0.8 (≈ 2.13 µM)	0.2 (≈ 0.532 µM)	3.1 (≈ 8.25 µM)	–	–	–	–	–
CCOC(=O)c1ccccc1NC(=O)C(=O)c1c(-c2ccccc2)cc2ccccn12 [Example 208, 2-[2-Oxo-2-(2-phenyl-indolizin-3-yl)-acetylamino]-benzoic acid ethyl ester]	> 50	> 50	> 50	12.5 (≈ 30.3 µM)	> 50	–	–	–	–	–
COC(=O)c1ccccc1NC(=O)C(=O)c1c(-c2ccccc2)cc2ccccn12 [Example 142, 2-[2-Oxo-2-(2-phenyl-indolizin-3-yl)-acetylamino]-benzoic acid methyl ester]	> 50	> 50	0.8 (≈ 2.01 µM)	> 50	> 50	–	–	–	–	–
Cc1c(NC(=O)C(=O)c2c(-c3ccccc3)cc3ccccn23)c(=O)n(-c2ccccc2)n1C [Example 303, N-(1,5-Dimethyl-3-oxo-2-phenyl-2,3-dihydro-1-pyrazol-4-yl)-2-oxo-2-(2-phenyl-indolizin-3-yl)-acetamide]	–	–	–	–	–	50 (≈ 111 µM)	50 (≈ 111 µM)	50 (≈ 111 µM)	25 (≈ 55.5 µM)	50 (≈ 111 µM)
COc1ccc(NC(=O)C(=O)c2c(-c3ccco3)cc3ccccn23)cc1 [Example 164, 2-(2-Furan-2-yl-indolizin-3-yl)-N-(4-methoxy-phenyl)-2-oxo-acetamide]	0.4 (≈ 1.11 µM)	> 50	0.4 (≈ 1.11 µM)	> 50	> 50	–	–	–	–	–
Cc1cccc(NC(=O)C(=O)c2c(-c3cccnc3)cc3ccccn23)c1 [Example 215, 2-Oxo-2-(2-pyridin-3-yl-indolizin-3-yl)-N-m-tolyl-acetamide]	0.05 (≈ 0.141 µM)	0.8 (≈ 2.25 µM)	0.4 (≈ 1.13 µM)	0.05 (≈ 0.141 µM)	0.4 (≈ 1.13 µM)	–	–	–	–	–
